Test results published in PubChem BioAssay (NCI).
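Briefly, cells in 96-well plates were exposed to five compound concentrations for 48 h, and endpoints were estimated by linear interpolation. TGI: concentration producing complete growth inhibition.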

Experiments:
Assay in all cases: NCI anticancer screen, dose series, 48 h
NCI-H522 lung = tested on: NCI-H522 lung
HOP-92 NSCLC = tested on: HOP-92 NSCLC
M19-MEL melanoma = tested on: M19-MEL melanoma
OVCAR-4 ovarian = tested on: OVCAR-4 ovarian
UO-31 renal = tested on: UO-31 renal
SF-295 CNS = tested on: SF-295 CNS
SN12C renal = tested on: SN12C renal
ACHN renal = tested on: ACHN renal
HT29 colon = tested on: HT29 colon
HOP-62 NSCLC = tested on: HOP-62 NSCLC
MALME-3M melanoma = tested on: MALME-3M melanoma
IGROV1 ovarian = tested on: IGROV1 ovarian
NCI-H23 lung = tested on: NCI-H23 lung
NCI-H226 lung = tested on: NCI-H226 lung
HCT-15 colon = tested on: HCT-15 colon
NCI-H460 lung = tested on: NCI-H460 lung
COLO 205 colon = tested on: COLO 205 colon
SK-MEL-2 melanoma = tested on: SK-MEL-2 melanoma
LXFL 529 NSCLC = tested on: LXFL 529 NSCLC
OVCAR-3 ovarian = tested on: OVCAR-3 ovarian
RPMI-8226 leukemia = tested on: RPMI-8226 leukemia
SK-MEL-28 melanoma = tested on: SK-MEL-28 melanoma
M14 melanoma = tested on: M14 melanoma
SNB-19 CNS = tested on: SNB-19 CNS
SF-268 CNS = tested on: SF-268 CNS
MOLT-4 leukemia = tested on: MOLT-4 leukemia
KM12 colon = tested on: KM12 colon
A498 renal = tested on: A498 renal
SW-620 colon = tested on: SW-620 colon
TK-10 renal = tested on: TK-10 renal
KM20L2 colon = tested on: KM20L2 colon
SF-539 CNS = tested on: SF-539 CNS
RXF 393 renal = tested on: RXF 393 renal
OVCAR-8 ovarian = tested on: OVCAR-8 ovarian
OVCAR-5 ovarian = tested on: OVCAR-5 ovarian
U251 CNS = tested on: U251 CNS
HCT-116 colon = tested on: HCT-116 colon
DLD-1 colon = tested on: DLD-1 colon
SK-OV-3 ovarian = tested on: SK-OV-3 ovarian
HCC-2998 colon = tested on: HCC-2998 colon
UACC-257 melanoma = tested on: UACC-257 melanoma
EKVX NSCLC = tested on: EKVX NSCLC
DMS 114 small cell lung = tested on: DMS 114 small cell lung
786-0 renal = tested on: 786-0 renal
HL-60(TB) leukemia = tested on: HL-60(TB) leukemia
A549 NSCLC = tested on: A549 NSCLC
SNB-78 CNS = tested on: SNB-78 CNS
LOX IMVI melanoma = tested on: LOX IMVI melanoma
K-562 leukemia = tested on: K-562 leukemia
CCRF-CEM leukemia = tested on: CCRF-CEM leukemia
RXF-631 renal = tested on: RXF-631 renal
SNB-75 CNS = tested on: SNB-75 CNS
UACC-62 melanoma = tested on: UACC-62 melanoma
HOP-18 NSCLC = tested on: HOP-18 NSCLC
CAKI-1 renal = tested on: CAKI-1 renal
SK-MEL-5 melanoma = tested on: SK-MEL-5 melanoma
DMS 273 small cell lung = tested on: DMS 273 small cell lung
SR leukemia = tested on: SR leukemia

O=C(OC1CC(n2cc(F)c(=O)[nH]c2=O)OC1CSC(=O)c1ccccc1)c1ccccc1 (stereo not given)
TGI (NCI-H522 lung): 87 µM
TGI (HOP-92 NSCLC): 56 µM
TGI (M19-MEL melanoma): 67 µM
TGI (OVCAR-4 ovarian): > 100 µM
TGI (UO-31 renal): > 100 µM
TGI (SF-295 CNS): > 100 µM
TGI (SN12C renal): > 100 µM
TGI (ACHN renal): > 100 µM
TGI (HT29 colon): 34.4 µM
TGI (HOP-62 NSCLC): > 100 µM
TGI (MALME-3M melanoma): 84.5 µM
TGI (IGROV1 ovarian): > 100 µM
TGI (NCI-H23 lung): > 100 µM
TGI (NCI-H226 lung): 75.9 µM
TGI (HCT-15 colon): > 100 µM
TGI (NCI-H460 lung): > 100 µM
TGI (COLO 205 colon): 88.7 µM
TGI (SK-MEL-2 melanoma): > 100 µM
TGI (LXFL 529 NSCLC): > 100 µM
TGI (OVCAR-3 ovarian): 53.3 µM
TGI (RPMI-8226 leukemia): 57.4 µM
TGI (SK-MEL-28 melanoma): > 100 µM
TGI (M14 melanoma): > 100 µM
TGI (SNB-19 CNS): > 100 µM
TGI (SF-268 CNS): 68.8 µM
TGI (MOLT-4 leukemia): 81.1 µM
TGI (KM12 colon): 91.2 µM
TGI (A498 renal): > 100 µM
TGI (SW-620 colon): > 100 µM
TGI (TK-10 renal): > 100 µM
TGI (KM20L2 colon): 33.9 µM
TGI (SF-539 CNS): > 100 µM
TGI (RXF 393 renal): 81.1 µM
TGI (OVCAR-8 ovarian): > 100 µM
TGI (OVCAR-5 ovarian): > 100 µM
TGI (U251 CNS): 49.8 µM
TGI (HCT-116 colon): > 100 µM
TGI (DLD-1 colon): > 100 µM
TGI (SK-OV-3 ovarian): > 100 µM
TGI (HCC-2998 colon): 75.2 µM
TGI (UACC-257 melanoma): 87.6 µM
TGI (EKVX NSCLC): 90.5 µM
TGI (DMS 114 small cell lung): > 100 µM
TGI (786-0 renal): > 100 µM
TGI (HL-60(TB) leukemia): 53.3 µM
TGI (A549 NSCLC): 92.4 µM
TGI (SNB-78 CNS): > 100 µM
TGI (LOX IMVI melanoma): > 100 µM
TGI (K-562 leukemia): > 100 µM
TGI (CCRF-CEM leukemia): > 100 µM
TGI (RXF-631 renal): 40.3 µM
TGI (SNB-75 CNS): 65.6 µM
TGI (UACC-62 melanoma): > 100 µM
TGI (HOP-18 NSCLC): 97.4 µM

CN(C)Cc1cc(/C(=C(\C#N)c2ccccc2)c2ccc(O)cc2)ccc1O
TGI (NCI-H522 lung): 26.1 µM
TGI (HOP-92 NSCLC): 52.4 µM
TGI (M19-MEL melanoma): 31.2 µM
TGI (OVCAR-4 ovarian): 70.5 µM
TGI (UO-31 renal): 60.2 µM
TGI (SF-295 CNS): 49.7 µM
TGI (SN12C renal): 59.6 µM
TGI (ACHN renal): 32.4 µM
TGI (HT29 colon): 44.8 µM
TGI (HOP-62 NSCLC): 33.9 µM
TGI (MALME-3M melanoma): 29.8 µM
TGI (IGROV1 ovarian): 99.5 µM
TGI (NCI-H23 lung): 52.5 µM
TGI (NCI-H226 lung): 56.9 µM
TGI (HCT-15 colon): 96.5 µM
TGI (NCI-H460 lung): 48.9 µM
TGI (COLO 205 colon): 31.9 µM
TGI (SK-MEL-2 melanoma): 33.9 µM
TGI (LXFL 529 NSCLC): 34.7 µM
TGI (OVCAR-3 ovarian): 50.3 µM
TGI (CAKI-1 renal): 85.5 µM
TGI (RPMI-8226 leukemia): 46.4 µM
TGI (SK-MEL-28 melanoma): 26.8 µM
TGI (M14 melanoma): 23.1 µM
TGI (SNB-19 CNS): > 100 µM
TGI (SF-268 CNS): 60.3 µM
TGI (MOLT-4 leukemia): 39.3 µM
TGI (KM12 colon): 61 µM
TGI (A498 renal): > 100 µM
TGI (SW-620 colon): 73.7 µM
TGI (TK-10 renal): 79.4 µM
TGI (KM20L2 colon): > 100 µM
TGI (RXF 393 renal): 14 µM
TGI (OVCAR-8 ovarian): 48.5 µM
TGI (OVCAR-5 ovarian): 72.4 µM
TGI (U251 CNS): 50.1 µM
TGI (HCT-116 colon): 25.2 µM
TGI (DLD-1 colon): 86.1 µM
TGI (SK-OV-3 ovarian): 87.5 µM
TGI (HCC-2998 colon): 32.4 µM
TGI (UACC-257 melanoma): 29.9 µM
TGI (EKVX NSCLC): > 100 µM
TGI (DMS 114 small cell lung): 29.4 µM
TGI (786-0 renal): 35.6 µM
TGI (SK-MEL-5 melanoma): 28.9 µM
TGI (A549 NSCLC): > 100 µM
TGI (DMS 273 small cell lung): 36.4 µM
TGI (SNB-78 CNS): 94.9 µM
TGI (LOX IMVI melanoma): 26.8 µM
TGI (K-562 leukemia): 40.4 µM
TGI (SR leukemia): 31.8 µM
TGI (CCRF-CEM leukemia): 45.5 µM
TGI (RXF-631 renal): 37.2 µM
TGI (SNB-75 CNS): 63.6 µM
TGI (UACC-62 melanoma): 33.4 µM
TGI (HOP-18 NSCLC): 66.5 µM
